Test results from ChEMBL document CHEMBL5136972, “Targeting SARS-CoV-2 Proteases and Polymerase for COVID-19 Treatment: State of the Art and Future Opportunities” (J Med Chem, 2022).

Target: Replicase polyprotein 1ab (Severe acute respiratory syndrome coronavirus 2, UniProt P0DTD1)

For `Cc1cc(C(=O)N[C@@H](C)C(=O)N[C@H](C(=O)N[C@@H](CC(C)C)C(=O)N[C@H](/C=C/C(=O)OCc2ccccc2)C[C@@H]2CCNC2=O)C(C)C)no1`, the Ki was 9 µM.
